Positions of bridges follow the written chain, without caps; N, C: chain ends. Residues, ends and D or L forms follow the SMILES beside them.
Assays:
[1] = tested on: Fusarium culmorum (IMI 180420); experiment: Antifungal growth inhibition microplate assay (photospectrometry); assay type: cell-based; settings: for increase of MIC value: 15-mer peptides, 50 mM KCl versus ½ PDB alone
Method in brief: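 Spores (2×10^4/ml) in half-strength potato dextrose broth exposed to test solution, incubated in the dark at room temperature for about 72 h (96 h for V. dahliae). Growth by OD595 minus 30-min reading; IC50 is 50% and MIC 100% growth inhibition.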

[2] = Solubility of peptide in water; assay type: physicochemical; settings: dissolved at 2 mg/ml
Description: Peptides insoluble in water were dissolved in 50% acetonitrile: 50% acetonitrile was added to the peptide to give a stock solution which could be further diluted with water for fungal growth assays. Fungal growth was not affected by the presence of acetonitrile at the maximum concentration tested ([…] in the test well).
Split 15-mer peptides were dissolved in sterile milli-Q water to a final concentration of 5 mg/ml. MPS 15-mer peptides were dissolved to a final concentration between 4 and 10 mg/ml using acetonitrile as solvent for those peptides insoluble in water. Split 6-, 9- and 12-mer Rs-AFP 1 peptides were dissolved to a final concentration of 2 mg/ml in 20% acetonitrile. Split 6-, 9- and 12-mer Rs-AFP2 peptides were dissolved to a final concentration of 2 mg/ml in sterile water except for peptides numbers 1 (SEQ ID NO: 133) and 83 (SEQ ID NO: 35, amino acids 37-45) which were dissolved in 50% acetonitrile and numbers 3, 4, 5, 25, 47, 52, 64, 69, 70, 73, 74, 77, 85 and 93 which were dissolved in 20% acetonitrile. Both Rs-AFP1 and Rs-AFP2 peptides were freeze-dried just before weighing. […] The foregoing peptides have the following sequence identifications: […]

[3] = tested on: F culmorum; experiment: Antifungal activity of combinations of Rs-AFP and 15-mer peptides; assay type: cell-based, Fusarium culmorum; settings: 100 x MIC of Rs-AFP2 / MIC of Rs-AFP2/peptide combination; 15-mer peptide added at 20 μg/ml; SMF medium; BSA-coated plates; Rs-AFP2 alone = 100
Description: The 15-mer peptides were tested for their ability to affect the antifungal activity of the Rs-AFP2 protein (SEQ ID NO: 35). Each peptide was added at a subinhibitory concentration (20 μg/ml ) to a twofold dilution series of Rs-AFP2 (SEQ ID NO: 35) ranging from 20 μg/ml down to 0.15 μg/ml. In the control series only water was added.
The target fungus was F culmorum and the growth medium was SMF. In order to exclude the effect of differential binding of the peptides to the microplate wells, the plates were coated with bovine serum albumin. […] The relative specific activity is defined as one hundred times the MIC of Rs-AFP2 divided by the MIC of the Rs-AFP2/peptide combination. Data are based on duplicate tests.

Compound	increase of MIC value [1]	Relative Specific Antifungal Activity [3]	further results
CC(=O)N[C@H]1CSSC[C@@H](C(N)=O)NC(=O)[C@H](CCCCN)NC(=O)[C@H](Cc2c[nH]cn2)NC(=O)[C@H](C)NC(=O)[C@@H]2CCCN2C(=O)[C@H](Cc2ccccc2)NC(=O)[C@H](C(C)C)NC(=O)[C@H](Cc2ccc(O)cc2)NC(=O)[C@H](CC(N)=O)NC1=O [Loop 1, CNYVFPAHKC] (Ac-CNYVFPAHKC-NH2; disulfide 1-10)			ANTIFUNGAL ACTIVITY, MIC ([1]; Table 8: Loop 1 and Rs-AFP2 15-mer peptides, 1/16 PDB): 2.5 µg/mL; ANTIFUNGAL ACTIVITY, IC50 ([1]; Table 9: Loop 1 and Rs-AFP2 15-mer peptides, 1/16 PDB): 4 µg/mL; solubility in water [2]: completely soluble in water
CC[C@H](C)[C@H](NC(=O)[C@H](CS)NC(=O)[C@H](CCCCN)NC(=O)[C@H](Cc1c[nH]cn1)NC(=O)[C@H](C)NC(=O)[C@@H]1CCCN1C(=O)[C@H](Cc1ccccc1)NC(=O)[C@@H](NC(=O)[C@H](Cc1ccc(O)cc1)NC(=O)[C@H](CC(N)=O)NC(=O)[C@H](CS)NC(=O)[C@H](CO)NC(=O)CNC(=O)[C@H](Cc1c[nH]cn1)NC(C)=O)C(C)C)C(=O)N[C@@H](CS)C(N)=O [Peptide 9 (Rs-AFP2 15-mer), HGSCNYVFPAHKCIC] (Ac-HGSCNYVFPAHKCIC-NH2; N-terminus and C-terminus assumed)	~8 fold	450	
CC[C@H](C)[C@H](NC(=O)[C@H](CS)NC(C)=O)C(=O)N[C@@H](CCCNC(=N)N)C(=O)N[C@@H](CC(C)C)C(=O)N[C@@H](CCC(=O)O)C(=O)N[C@@H](CCCCN)C(=O)N[C@@H](C)C(=O)N[C@@H](CCCNC(=N)N)C(=O)N[C@@H](Cc1c[nH]cn1)C(=O)NCC(=O)N[C@@H](CO)C(=O)N[C@@H](CS)C(=O)N[C@@H](CC(N)=O)C(=O)N[C@@H](Cc1ccc(O)cc1)C(=O)N[C@H](C(N)=O)C(C)C [Peptide 7 (Rs-AFP2 15-mer), CIRLEKARHGSCNYV] (Ac-CIRLEKARHGSCNYV-NH2; N-terminus and C-terminus assumed)	twofold	350	
CC[C@H](C)[C@H](NC(=O)[C@H](CS)NC(=O)[C@H](CCC(N)=O)NC(=O)[C@H](CC(N)=O)NC(=O)[C@H](CCCCN)NC(=O)[C@H](CS)NC(=O)[C@H](C)NC(=O)[C@H](CC(N)=O)NC(=O)[C@H](CC(N)=O)NC(=O)[C@H](CC(N)=O)NC(C)=O)C(=O)N[C@@H](CCCNC(=N)N)C(=O)N[C@@H](CC(C)C)C(=O)N[C@@H](CCC(=O)O)C(=O)N[C@@H](CCCCN)C(=O)N[C@@H](C)C(N)=O [Peptide 5 (Rs-AFP2 15-mer)] (Ac-NNNACKNQCIRLEKA-NH2; N-terminus and C-terminus assumed)		180	
CC[C@H](C)[C@H](NC(=O)[C@H](CS)NC(=O)[C@H](CCC(N)=O)NC(=O)[C@H](CC(N)=O)NC(=O)[C@H](CCCCN)NC(=O)[C@H](CS)NC(C)=O)C(=O)N[C@@H](CCCNC(=N)N)C(=O)N[C@@H](CC(C)C)C(=O)N[C@@H](CCC(=O)O)C(=O)N[C@@H](CCCCN)C(=O)N[C@@H](C)C(=O)N[C@@H](CCCNC(=N)N)C(=O)N[C@@H](Cc1c[nH]cn1)C(=O)NCC(=O)N[C@@H](CO)C(N)=O [Peptide 6 (Rs-AFP2 15-mer), CKNQCIRLEKARHGS] (Ac-CKNQCIRLEKARHGS-NH2; N-terminus and C-terminus assumed)	twofold	300	
CC[C@H](C)[C@H](NC(=O)[C@H](CS)NC(=O)[C@H](CCCCN)NC(=O)[C@H](Cc1c[nH]cn1)NC(=O)[C@H](C)NC(=O)[C@@H]1CCCN1C(=O)[C@H](Cc1ccccc1)NC(=O)[C@@H](NC(=O)[C@H](Cc1ccc(O)cc1)NC(=O)[C@H](CC(N)=O)NC(C)=O)C(C)C)C(=O)N[C@@H](CS)C(=O)N[C@@H](Cc1ccc(O)cc1)C(=O)N[C@@H](Cc1ccccc1)C(=O)N1CCC[C@H]1C(=O)N[C@@H](CS)C(N)=O [Peptide 10 (Rs-AFP2 15-mer)] (Ac-NYVFPAHKCICYFPC-NH2; N-terminus and C-terminus assumed)		250	
CC(=O)N[C@@H](CCC(N)=O)C(=O)N[C@@H](CCCCN)C(=O)N[C@@H](CC(C)C)C(=O)N[C@@H](CS)C(=O)N[C@@H](CCC(N)=O)C(=O)N[C@@H](CCCNC(=N)N)C(=O)N1CCC[C@H]1C(=O)N[C@@H](CO)C(=O)NCC(=O)N[C@H](C(=O)N[C@@H](Cc1c[nH]c2ccccc12)C(=O)N[C@@H](CO)C(=O)NCC(=O)N[C@H](C(=O)N[C@@H](CS)C(N)=O)C(C)C)[C@@H](C)O [Peptide 1 (Rs-AFP2 15-mer)] (Ac-QKLCQRPSGTWSGVC-NH2; N-terminus and C-terminus assumed)		310	
CC(=O)NCC(=O)N[C@H](C(=O)N[C@@H](Cc1c[nH]c2ccccc12)C(=O)N[C@@H](CO)C(=O)NCC(=O)N[C@H](C(=O)N[C@@H](CS)C(=O)NCC(=O)N[C@@H](CC(N)=O)C(=O)N[C@@H](CC(N)=O)C(=O)N[C@@H](CC(N)=O)C(=O)N[C@@H](C)C(=O)N[C@@H](CS)C(=O)N[C@@H](CCCCN)C(=O)N[C@@H](CC(N)=O)C(N)=O)C(C)C)[C@@H](C)O [Peptide 3 (Rs-AFP2 15-mer)] (Ac-GTWSGVCGNNNACKN-NH2; N-terminus and C-terminus assumed)		180	
CC(=O)N[C@@H](CCC(=O)O)C(=O)N[C@@H](CCCCN)C(=O)N[C@@H](C)C(=O)N[C@@H](CCCNC(=N)N)C(=O)N[C@@H](Cc1c[nH]cn1)C(=O)NCC(=O)N[C@@H](CO)C(=O)N[C@@H](CS)C(=O)N[C@@H](CC(N)=O)C(=O)N[C@@H](Cc1ccc(O)cc1)C(=O)N[C@H](C(=O)N[C@@H](Cc1ccccc1)C(=O)N1CCC[C@H]1C(=O)N[C@@H](C)C(=O)N[C@@H](Cc1c[nH]cn1)C(N)=O)C(C)C [Peptide 8 (Rs-AFP2 15-mer)]	about 16 fold	470	
Ac-QRPSGTWSGVCGNNN-NH2 (N-terminus and C-terminus assumed) [Peptide 2 (Rs-AFP2 15-mer)]		120	
